# Literature values in patent publication US20050014769A1, “Use of endothelin receptor antogonists for the treatment of tumour diseases” (priority 2001, published 2005).
# Square brackets hold non-standard residues; d marks the D form. Peptide text beside a SMILES is read from it.
# Key:
# melanoma cells = settings: in vitro; AACR Abstract No. 358, 2002
# [1] = tested on: primary ovarian carcinoma cells; settings: Bagnato A et al. Cancer Res 59, 720-727, 1999
# ovarian carcinoma cells = settings: Del Bufalo D et al., Molecular Pharmacology 61/3, 2002
# [2] = tested on: intestinal cancer cell lines; settings: Ali H et al. Gut 47, 685-688, 2000
# metastasis formation = settings: rat metastasis model; Asham E et al. British Journal of Cancer 81/11, 2001
# [3] = tested on: HPV positive cervical carcinomas; settings: cervical carcinoma; Venuti A et al., FASEB 14/14, 2279-2283, 2000
# [4] = tested on: prostate cancer cell lines; settings: in vitro; Nelson J B et al. Cancer Research 56, 663-668, 1996
# [5] = tested on: pancreas tumour cells (ASPC-1); settings: in vivo; AACR Abstract No. 3365, 2000
compound,measurement,setting,value
COc1ccccc1Oc1c(NS(=O)(=O)c2ccc(C(C)(C)C)cc2)nc(-c2ncccn2)nc1OCCO [Bosetan],proliferation of melanoma cells,melanoma cells,inhibits the proliferation
CC(C)C[C@@H]1NC(=O)[C@@H](C(C)C)NC(=O)[C@@H]2CCCN2C(=O)[C@@H](CC(=O)O)NC(=O)[C@@H](Cc2c[nH]c3ccccc23)NC1=O [BQ123] (cyclo(L[dW][dD]P[dV])),proliferation of tumour cells,[1],inhibits the proliferation
same,ET-1 protection against apoptosis,ovarian carcinoma cells,can be eliminated
same,ET-1 stimulated proliferation of intestinal cancer cell lines,[2],can be inhibited
same,metastasis formation,metastasis formation,inhibits metastasis formation
same,ET-1 stimulated proliferation of tumour cells,[3],can be inhibited
CCCCN(CCCC)C(=O)CN1C[C@H](c2ccc3c(c2)OCO3)[C@@H](C(=O)O)[C@@H]1c1ccc(OC)cc1 [Atrasentan],growth of various prostate cancer cell lines,[4],inhibits the growth
COc1ccccc1Oc1c(NS(=O)(=O)c2ccc(C(C)C)cn2)nc(-c2ccnc(-c3nnn[nH]3)c2)nc1OCCO [Ro 61-612/001],proliferation of pancreas tumour cells (ASPC-1),[5],inhibits the proliferation
